Experimental data reported in patent US20220095648A1, “USE OF A THRAUSTOCHYTRID BIOMASS FOR MAINTAINING GUT BARRIER FUNCTION” (priority 2019, published 2022).

Assays:
[1] = test system: Caco-2 cells; assay: TER of Caco-2 cells exposed to DON; type: cell-based
Experimental: Caco-2 cells were used as a model of intestinal epithelial cells. Cells were routinely grown in culture media (DMEM) supplemented with 10% fetal calf serum and 1% antibiotics (streptomycin penicillin solution). Cells were grown in 75 cm^2 ventilated flasks maintained at 37° C. in a 5% CO2 incubator. Cells were routinely passaged using trypsin-EDTA solution. For the assay, cells were seeded onto 12-well inserts (Thincert, Greiner, pore size 0.4 μm) at an initial density of 200,000 cells/cm^2 and let to differentiate for 10-14 days post-seeding before being used, with medium changes every two days. Cell differentiation was confirmed by reading the TER, using a Volt/Ohm meter (Millipore), at the beginning of the experiment, when the TER value reached 600 Ohm/cm^2. […]
After differentiation, Caco-2 cells were put in contact, during 48 or 72 h, with or without DON at different concentrations (0, 6.25, 12.5, 25, 50 or 100 μM), and with activated charcoal at 1% (w/v) as positive control, or with or without one of the microalgae preparation type at different concentrations (1, 5, or 20% v:v, final dilution), each added on the apical side. At the end of the incubation time, the TER was measured using a Volt/Ohm meter (Millipore), and results were expressed in percentages of the control put in contact with the same concentration of DON but not with the tested product (microalgae or charcoal). […]

[2] = test system: Caco-2 cells; assay: D-glucose total and passive uptake by Caco-2 cells exposed to DON; type: cell-based; conditions: DON 10 μM alone
Text: (§1) In order to test the ability of microalgae to reduce/prevent the effect of DON on nutrient absorption through epithelial cells, Caco-2 cells were exposed to a metabolically active dose of DON, in the absence or presence of Aurantiochytrium mangrovei FCC1325 microalgae (lyophilized microalgae “ML”, or digested lyophilized microalgae “MLD”), at a dose of 1% or 5%. Two main types of nutrients were considered (i.e. glucose and amino acids—more particularly Methionine, Lysine and Threonine), and the following measurements were carried out: • For glucose (D-Glc): passive, active (regulated by the sodium-dependent SGLT-1 transporter) and total (active+passive) absorption • For amino acids (L-Methionine, L-Lysine and L-Threonine): passive, active (regulated by sodium-dependent transport) and total (active+passive) absorption
(§2) Briefly, Caco-2 cells were cultured and seeded onto 12-well inserts, as described in Example 1, and then let to differentiate for 16-21 days post-seeding before being used, with medium changes every two days. When differentiated, Caco-2 cells were incubated or not with DON at 10 μM (apically added), in the absence or presence of 1 or 5% (v:v final dilution, apically added) of microalgae preparation (ML or MLD). Both ML and MLD powders were resuspended initially at 0.8 mg/ml in buffer (fresh culture medium of the microalgae). Caco-2 cells were incubated for 12, 24 or 48 hours before nutrient uptake was measured.
(§3) At the end of the incubation period, inserts were washed twice with PBS++. Inserts were then washed twice with uptake buffer (Ringer Hepes buffer) with or without sodium. Uptake buffer composition was: • Ringer Hepes buffer with sodium (called “+Na+”): 137 mmol/L NaCl, 5.36 mmol/L KCl, 0.4 mmol/L Na2HPO4, 0.8 mmol/L MgCl2, 1.8 mmol/L CaCl2, 20 mmol/L N-2-hydroxyethylpiperazine-N-2-ethanesulfonic acid (HEPES), pH being adjusted to pH 7.4 with NaOH; or • Ringer Hepes buffer without sodium (called “—Na+”): 137 mmol/L Choline chloride (instead of sodium chloride), 5.36 mmol/L KCl, 0.4 mmol/L K2HPO4 (instead of Na2HPO4), 0.8 mmol/L MgCl2, 1.8 mmol/L CaCl2, 20 mmol/L N-2-hydroxyethylpiperazine-N-2-ethanesulfonic acid (HEPES), pH being adjusted to pH 7.4 with KOH.
(§4) After an equilibration period of 15 min at 37° C., uptake assay was initiated by the addition of D-Glc, L-Lysine, L-Methionine or L-Threonine diluted in the appropriate Ringer Hepes buffer (400 μl) and added apically onto Caco-2 inserts (final concentration of 100 μM of D-Glc and 400 μM for amino-acids), the basolateral compartment being filled with 400 μl of buffer. Inserts were kept incubated at 37° C. during the uptake assay. After 15 minutes incubation, 30 μl of media were collected from apical or basolateral compartments and stored at −20° C. until nutrient quantification. Residual concentrations of D-Glc or L-amino acid present in the apical compartments were measured using enzyme-based quantification assay kits (Glucose Colorimetric/Fluorometric Assay Kit, Sigma-Aldrich).
(§5) Uptakes were expressed as: • Total uptake: uptake measured (either measured residual apical concentration or calculated absorbed (intracellular+basolateral) concentration) in Ringer Hepes buffer with Na+corresponding to the activity of sodium-dependent and sodium-independent transporters; • Passive uptake: uptake measured in Ringer Hepes buffer without Na+corresponding to only passive/sodium-independent transporters; • Active uptake: uptake calculated by subtracting passive uptake to total uptake.

[3] = test system: sodium-dependent SGLT-1 transporter; assay: SGLT-1 mediated (active) D-glucose uptake by Caco-2 cells exposed to DON; type: cell-based; conditions: DON 10 μM alone, total minus passive
Text: as §1
as §2, with “Both ML and MLD powders were resuspended initially at 0.8 mg/ml in buffer (fresh culture medium of the microalgae).” left out, “measured. […]” for “measured.”
as §4, with “Inserts were kept incubated at 37° C. during the uptake assay.” left out, “Sigma-Aldrich). […]” for “Sigma-Aldrich).”

[4] = test system: Caco-2 cells; assay: L-Lysine uptake by Caco-2 cells exposed to DON; type: cell-based; conditions: for % of inhibition by DON, Passive uptake (−Na) / % of inhibition by DON, Total uptake (+Na) / % of inhibition by DON, Active transport: L-Lysine, DON 10 μM alone; for % of inhibition by DON, Active transport: total minus passive
Text: as §1, §2, §3, §4, §5

[5] = test system: Caco-2 cells; assay: L-Methionine uptake by Caco-2 cells exposed to DON; type: cell-based; conditions: for % of inhibition by DON, Passive uptake (−Na) / % of inhibition by DON, Total uptake (+Na) / % of inhibition by DON, Active transport: L-Methionine, DON 10 μM alone; for % of inhibition by DON, Active transport: total minus passive
Text: as §1, §2, §3, §4, §5

[6] = test system: Caco-2 cells; assay: L-Threonine uptake by Caco-2 cells exposed to DON; type: cell-based; conditions: DON 10 μM alone; for % of inhibition by DON, Active transport: total minus passive
Text: as §1, §2, §3, §4, §5

[7] = test system: Caco-2 cells; assay: Nutrient uptake by Caco-2 cells exposed to DON (overall conclusion); type: cell-based; conditions: DON at 10 μM
Experimental: In order to test the ability of microalgae to reduce/prevent the effect of DON on nutrient absorption through epithelial cells, Caco-2 cells were exposed to a metabolically active dose of DON, in the absence or presence of Aurantiochytrium mangrovei FCC1325 microalgae (lyophilized microalgae “ML”, or digested lyophilized microalgae “MLD”), at a dose of 1% or 5%. […]
Briefly, Caco-2 cells were cultured and seeded onto 12-well inserts, as described in Example 1, and then let to differentiate for 16-21 days post-seeding before being used, with medium changes every two days. […] Caco-2 cells were incubated for 12, 24 or 48 hours before nutrient uptake was measured. […]
as §4, with “Inserts were kept incubated at 37° C. during the uptake assay.” left out, “Sigma-Aldrich). […]” for “Sigma-Aldrich).”

[8] = test system: Ross 308 broilers; assay: Colon length and colon mucosa aspect in DSS-treated broiler chickens; type: in vivo; conditions: DSS in drinking water, control diet
Text: (§6) Material and Methods: • Experimental animals: Day-of-hatch male Ross 308 broilers were obtained from a local hatchery, placed in floor pens until 6 days of age, and provided heat to maintain an age-appropriate temperature. Chicks were provided ad libitum access to water and the balanced experimental diets meeting the poultry nutrition requirements recommended for Ross 308 broilers during the starter period from 1 to 16 days of age. • Experimental diets: A basal starter diet (CON) in the form of short pellets was formulated based on wheat, corn, and soybean meal (Table 14). The other experimental diets were formulated to contain 5% microalgae Aurantiochytrium mangrovei (MAG-5) or 2% curcumin (CUM-2) by replacing part of the cereal, protein or oil content. […]
(§7) • Dextran Sulfate Sodium (DSS) administration: DSS was used to increase intestinal permeability in broilers, by inducing epithelium damage. […] Fluorescence levels of diluted plasma (1:4 in saline solution 0.9% NaCl) were measured at an excitation wavelength of 485 nm and emission wavelength of 528 nm (BIOTEK synergie H1), and FITC-dextran concentration per mL of plasma was calculated based on a standard curve. • At the time of euthanisa, the colon was collected for morphometry. […] The colon (from the ileocecal junction to the cloaca) was then excised and its length was measured.

[9] = test system: Ross 308 broilers; assay: Gut permeability: FITC-dextran in plasma of DSS-treated broiler chickens; type: in vivo; conditions: DSS administration, control diet; blood 1 h after oral gavage
Text: as §6, §7

CC1=C[C@H]2O[C@@H]3[C@H](O)C[C@](C)([C@@]2(CO)[C@H](O)C1=O)[C@]31CO1 [DON, Deoxynivalenol]
effect of DON only on the TER ([1]; DON 6.25-100 μM, more pronounced as concentration increased): induced a reduction of the TER
IC50 ([1]; IC50 of DON on TER, control without tested product, 48 h): 11 µM
% of inhibition by DON, Passive uptake (−Na) ([2]; 12 h): 6.4%
% of inhibition by DON, Total uptake (+Na) ([2]; 12 h): 9.3%
% of inhibition by DON, Passive uptake (−Na) ([2]; 24 h): 22.2%
% of inhibition by DON, Total uptake (+Na) ([2]; 24 h): 29.4%
% of inhibition by DON, Passive uptake (−Na) ([2]; 48 h): 21.6%
% of inhibition by DON, Total uptake (+Na) ([2]; 48 h): 28.8%
% of inhibition by DON, SGLT-1 mediated ([3]; 12 h): 19.2%
% of inhibition by DON, SGLT-1 mediated ([3]; 24 h): 52.3%
% of inhibition by DON, SGLT-1 mediated ([3]; 48 h): 51.4%
effect of DON on active L-Lys uptake ([4]; 48 h incubation, DON alone): stimulated
% of inhibition by DON, Passive uptake (−Na) ([4]; 12 h): −6.1%
% of inhibition by DON, Total uptake (+Na) ([4]; 12 h): −5.2%
% of inhibition by DON, Active transport ([4]; 12 h): 57.5%
% of inhibition by DON, Passive uptake (−Na) ([4]; 24 h): −10.1%
% of inhibition by DON, Total uptake (+Na) ([4]; 24 h): −5.2%
% of inhibition by DON, Active transport ([4]; 24 h): 44.2%
% of inhibition by DON, Passive uptake (−Na) ([4]; 48 h): −6.6%
% of inhibition by DON, Total uptake (+Na) ([4]; 48 h): −9.4%
% of inhibition by DON, Active transport ([4]; 48 h): −102.3%
effect of DON on L-Met active uptake ([5]; 12 h incubation): stimulated
effect of DON on active L-Met uptake ([5]; 48 h incubation, DON alone): stimulated
% of inhibition by DON, Passive uptake (−Na) ([5]; 12 h): −2.2%
% of inhibition by DON, Total uptake (+Na) ([5]; 12 h): −9.6%
% of inhibition by DON, Active transport ([5]; 12 h): −256.0%
% of inhibition by DON, Passive uptake (−Na) ([5]; 24 h): −4.9%
% of inhibition by DON, Total uptake (+Na) ([5]; 24 h): −12.9%
% of inhibition by DON, Passive uptake (−Na) ([5]; 48 h): 1.8%
% of inhibition by DON, Total uptake (+Na) ([5]; 48 h): −4.1%
% of inhibition by DON, Active transport ([5]; 48 h): −102.4%
% of inhibition by DON, Passive uptake (−Na) ([6]; 12 h): −9.5%
% of inhibition by DON, Total uptake (+Na) ([6]; 12 h): −6.3%
% of inhibition by DON, Active transport ([6]; 12 h): 56.5%
% of inhibition by DON, Passive uptake (−Na) ([6]; 24 h): −9.5%
% of inhibition by DON, Total uptake (+Na) ([6]; 24 h): −6.3%
% of inhibition by DON, Active transport ([6]; 24 h): 56.5%
% of inhibition by DON, Passive uptake (−Na) ([6]; 48 h): −16.9%
% of inhibition by DON, Total uptake (+Na) ([6]; 48 h): −14.5%
% of inhibition by DON, Active transport ([6]; 48 h): 76.4%
effect of DON on intestinal nutrient uptake [7]: alters intestinal nutrient uptake

Dextran Sulfate Sodium [DSS]
length of the colon ([8]; 16-day old chickens, compared with group without DSS): significantly increased
visual observation of the colon mucosa ([8]; compared with DSS- control group): thinner, translucent, and more fragile
flow of FITC-dextran through the gut barrier [9]: significantly increased
